Assay results reported in US8822503B2, “2-pyridone compounds” (Taisho Pharmaceutical Co., Ltd, priority 2009, dated 2014).

Biological target: T1, human liver GK (Homo sapiens, UniProt P35557)
T1 construct: GST (glutathione S-transferase) (N); made in house; host or cells: E. coli
T1 sequence (P35557 1-466 isoform P35557-2): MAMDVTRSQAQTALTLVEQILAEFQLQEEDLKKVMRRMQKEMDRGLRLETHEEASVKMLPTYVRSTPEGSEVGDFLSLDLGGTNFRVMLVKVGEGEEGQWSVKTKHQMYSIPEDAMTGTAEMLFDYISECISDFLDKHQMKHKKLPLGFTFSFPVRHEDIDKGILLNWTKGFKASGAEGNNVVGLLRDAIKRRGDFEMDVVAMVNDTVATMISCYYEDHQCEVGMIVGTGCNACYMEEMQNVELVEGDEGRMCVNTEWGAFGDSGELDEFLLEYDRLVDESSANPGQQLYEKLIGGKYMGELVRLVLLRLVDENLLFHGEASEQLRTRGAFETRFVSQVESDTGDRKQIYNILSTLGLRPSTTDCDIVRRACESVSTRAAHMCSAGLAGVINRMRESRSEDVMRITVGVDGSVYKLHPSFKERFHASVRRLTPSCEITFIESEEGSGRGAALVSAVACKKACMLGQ
Assay: GK activation test
Format: biochemical
Details: test compound concentration needed to activate 50% of maximum activation ability; 4 mM 14C-labeled glucose, 2 mM ATP, room temperature, 20 minutes
Method in brief: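 GST-tagged human liver GK from E. coli (0.24 μg/well) with 4 mM 14C-glucose, 2 mM ATP in Hepes-KOH pH 7.1, KCl, MgCl2, DTT, 1% DMSO, 20 min room temperature. Labeled glucose 6-phosphate captured on anion resin, eluted and counted. EC50 = concentration giving half of maximal activation.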

Row | SMILES | EC50
1 | Cc1ccc(/C(=C/[C@H]2CCC(=O)C2)c2ccc(S(=O)(=O)C3CC3)cc2)[nH]c1=O [Example 1-61, 6-{(E)-1-[4-(Cyclopropylsulfonyl)phenyl]-2-[(1S)-3-oxocyclopentyl]ethenyl}-3-methylpyridin-2(1H)-one] | 10 to 500 nM
2 | CN(C)S(=O)(=O)Nc1ccc(/C(=C\[C@H]2CCC(=O)N2)c2ccc(C3CC3)c(=O)[nH]2)cc1 [Example 4-139, N′-(4-{(E)-1-(5-Cyclopropyl-6-oxo-1,6-dihydropyridin-2-yl)-2-[(2R)-5-oxopyrrolidin-2-yl]ethenyl}phenyl)-N,N-dimethylsulfuric acid diamide] | 10 to 500 nM
3 | CSc1ccc(C(CC2CCC(=O)CC2)c2ccc(C)c(=O)[nH]2)cc1 (stereo not drawn) [Example 2-20, 3-Methyl-6-{1-[4-(methylsulfanyl)phenyl]-2-(4-oxocyclohexyl)ethyl}pyridin-2(1H)-one] | 500 to 3000 nM
4 | CCc1ccc(C(CC2CCCC2)c2ccc(S(=O)(=O)CCCO)cc2)[nH]c1=O (stereo not drawn) [Example 2-11, 6-(2-Cyclopentyl-1-{4-[(3-hydroxypropyl)sulfonyl]phenyl}ethyl)-3-ethylpyridin-2(1H)-one] | 500 to 3000 nM
5 | Cc1ccc(/C(=C/C2CCCC2)c2ccc(S(C)(=O)=O)cc2)[nH]c1=O [Example 1-8, 6-{(E)-2-Cyclopentyl-1-[4-(methylsulfonyl)phenyl]ethenyl}-3-methylpyridin-2(1H)-one] | 500 to 3000 nM
6 | CC(C)(C)c1ccc(/C(=C\[C@H]2CCC(=O)N2)c2ccc(C3CC3)c(=O)[nH]2)cc1 [Example 4-83, 6-{(E)-1-(4-tert-Butylphenyl)-2-[(2R)-5-oxopyrrolidin-2-yl]ethenyl}-3-cyclopropylpyridin-2(1H)-one] | 10 to 500 nM
7 | O=C1CC[C@H](/C=C(\c2ccc(C(F)(F)F)cc2)c2ccc(C3CC3)c(=O)[nH]2)N1 [Example 4-99, 3-Cyclopropyl-6-{(E)-2-[(2R)-5-oxopyrrolidin-2-yl]-1-[4-(trifluoromethyl)phenyl]ethenyl}pyridin-2(1H)-one] | 10 to 500 nM
8 | CCc1ccc(/C(=C/[C@H]2CCC(=O)C2)c2ccc(S(C)(=O)=O)c(Cl)c2)[nH]c1=O [Example 1-70, 6-{(E)-1-[3-Chloro-4-(methylsulfonyl)phenyl]-2-[(1S)-3-oxocyclopentyl]ethenyl}-3-ethylpyridin-2(1H)-one] | 10 to 500 nM
9 | O=C1CC[C@H](/C=C(\c2ccc(O)c(Cl)c2)c2ccc(C3CC3)c(=O)[nH]2)N1 [Example 4-145, 6-{(E)-1-(3-Chloro-4-hydroxyphenyl)-2-[(2R)-5-oxopyrrolidin-2-yl]ethenyl}-3-cyclopropylpyridin-2(1H)-one] | 10 to 500 nM
10 | CC(C)(C)c1ccc(/C(=C\[C@H]2CCC(=O)N2)c2ccc(C(F)(F)F)c(=O)[nH]2)cc1 [Example 4-74, 6-{(E)-1-(4-tert-Butylphenyl)-2-[(2R)-5-oxopyrrolidin-2-yl]ethenyl}-3-(trifluoromethyl)pyridin-2(1H)-one] | 10 to 500 nM
11 | CN(C)C(=O)c1ccc(/C(=C\[C@H]2CCC(=O)N2)c2ccc(Cl)c(=O)[nH]2)cc1 [Example 4-161, 4-{(E)-1-(5-Chloro-6-oxo-1,6-dihydropyridin-2-yl)-2-[(2R)-5-oxopyrrolidin-2-yl]ethenyl}-N,N-dimethylbenzamide] | 3000 to 10000 nM
12 | CCc1ccc(/C(=C/[C@H]2CCC(=O)C2)c2ccc(SC)c(Cl)c2)[nH]c1=O [Example 1-69, 6-{(E)-1-[3-Chloro-4-(methylsulfanyl)phenyl]-2-[(1S)-3-oxocyclopentyl]ethenyl}-3-ethylpyridin-2(1H)-one] | 10 to 500 nM
13 | O=c1[nH]c(/C(=C/C2CCCC2)c2ccc(SC3CC3)cc2)ccc1Cl [Example 1-103, 3-Chloro-6-{(E)-2-cyclopentyl-1-[4-(cyclopropylsulfanyl)phenyl]ethenyl}pyridin-2(1H)-one] | 10 to 500 nM
14 | CCOc1ccc(/C(=C\[C@H]2CCC(=O)C2)c2ccc(CC)c(=O)[nH]2)cc1Cl [Example 1-59, 6-{(E)-1-(3-Chloro-4-ethoxyphenyl)-2-[(1S)-3-oxocyclopentyl]ethenyl}-3-ethylpyridin-2(1H)-one] | 10 to 500 nM
15 | CC(C)CCOc1ccc(/C(=C\[C@H]2CCC(=O)N2)c2ccc(Cl)c(=O)[nH]2)cc1Cl [Example 4-20, 3-Chloro-6-{(E)-1-[3-chloro-4-(3-methylbutoxy)phenyl]-2-[(2R)-5-oxopyrrolidin-2-yl]ethenyl}pyridin-2(1H)-one] | 10 to 500 nM
16 | O=C1CC[C@H](/C=C(\c2ccc(C(F)(F)F)cc2)c2ccc(Cl)c(=O)[nH]2)N1 [Example 4-19, 3-Chloro-6-{(E)-2-[(2R)-5-oxopyrrolidin-2-yl]-1-[4-(trifluoromethyl)phenyl]ethenyl}pyridin-2(1H)-one] | 500 to 3000 nM
17 | C[C@@H](/C=C(\c1ccc(S(=O)(=O)C2CC2)cc1)c1ccc(C(F)(F)F)c(=O)[nH]1)CO [Example 1-101, 6-{(1E,3S)-1-[4-(Cyclopropylsulfonyl)phenyl]-4-hydroxy-3-methylbut-1-en-1-yl}-3-(trifluoromethyl)pyridin-2(1H)-one] | 3000 to 10000 nM
18 | O=C1CC[C@H](/C=C(\c2ccc(Cl)cc2)c2ccc(OCCCO)c(=O)[nH]2)N1 [Example 4-169, 6-{(E)-1-(4-Chlorophenyl)-2-[(2R)-5-oxopyrrolidin-2-yl]ethenyl}-3-(3-hydroxypropoxy)pyridin-2(1H)-one] | 3000 to 10000 nM
19 | O=C1CC[C@H](/C=C(\c2ccc(Cl)cc2)c2ccc(C3CC3)c(=O)[nH]2)N1 [Example 4-98, 6-{(E)-1-(4-Chlorophenyl)-2-[(2R)-5-oxopyrrolidin-2-yl]ethenyl}-3-cyclopropylpyridin-2(1H)-one] | 10 to 500 nM

Next, values leading:

Row | EC50 | SMILES
20 | 3000 to 10000 nM | CCOc1ccc(C(C[C@H]2CCC(=O)N2)c2ccc(Cl)c(=O)[nH]2)cc1 (single isomer, unassigned) [Example 4-235]
21 | 500 to 3000 nM | CC(C)(C)c1ccc(C(CCN2CCOC2=O)c2ccc(Cl)c(=O)[nH]2)cc1 (single isomer, unassigned) [Example 6-29, 6-[1-(4-tert-Butylphenyl)-3-(2-oxo-1,3-oxazolidin-3-yl)propyl]-3-chloropyridin-2(1H)-one]
22 | 10 to 500 nM | CC(C)c1ccc(C(C[C@H]2CCC(=O)N2)c2ccc(C3CC3)c(=O)[nH]2)cc1Cl (single isomer, unassigned) [Example 4-320]
23 | 500 to 3000 nM | CC(C)(C)c1ccc(C(C[C@H]2CCC(=O)N2)c2ccc(OC(F)F)c(=O)[nH]2)cc1 (single isomer, unassigned) [Example 4-246]
24 | 500 to 3000 nM | CC(C)Cn1cc(-c2ccc(/C(=C/[C@H]3CCC(=O)N3)c3ccc(C(C)(C)C)cc3)[nH]c2=O)cn1 [Example 4-182, 6-{(E)-1-(4-tert-Butylphenyl)-2-[(2R)-5-oxopyrrolidin-2-yl]ethenyl}-3-[1-(2-methylpropyl)-1H-pyrazol-4-yl]pyridin-2(1H)-one]
25 | 10 to 500 nM | CC(C)Oc1ccc(/C(=C\[C@H]2CCC(=O)N2)c2ccc(C3CC3)c(=O)[nH]2)cc1 [Example 4-276, 3-Cyclopropyl-6-{(E)-2-[(2R)-5-oxopyrrolidin-2-yl]-1-[4-(propan-2-yloxy)phenyl]ethenyl}pyridin-2(1H)-one]
26 | 3000 to 10000 nM | CC(C)(CO)COc1ccc(/C(=C/[C@H]2CCC(=O)N2)c2ccc(C(F)(F)F)cc2)[nH]c1=O [Example 4-171, 3-(3-Hydroxy-2,2-dimethylpropoxy)-6-{(E)-2-[(2R)-5-oxopyrrolidin-2-yl]-1-[4-(trifluoromethyl)phenyl]ethenyl}pyridin-2(1H)-one]
27 | 500 to 3000 nM | CC(C)(C)c1ccc(/C(=C\Cn2ncccc2=O)c2ccc(Cl)c(=O)[nH]2)cc1 [Example 6-33, 2-[(2E)-3-(4-tert-Butylphenyl)-3-(5-chloro-6-oxo-1,6-dihydropyridin-2-yl)prop-2-en-1-yl]pyridazin-3(2H)-one]
28 | 3000 to 10000 nM | Cc1cc(C(C[C@H]2CCC(=O)N2)c2ccc(C3CC3)c(=O)[nH]2)ccc1C(F)F (single isomer, unassigned) [Example 4-232]
29 | 10 to 500 nM | O=C1CC[C@H](CC(c2ccc(S(=O)(=O)C3CC3)c(Cl)c2)c2ccc(Cl)c(=O)[nH]2)N1 (single isomer, unassigned) [Example 4-304]
30 | 500 to 3000 nM | Cc1ccc(/C(=C\[C@H]2CCC(=O)N2)c2ccc(Cl)c(=O)[nH]2)cc1 [Example 4-256, 3-Chloro-6-{(E)-1-(4-methylphenyl)-2-[(2R)-5-oxopyrrolidin-2-yl]ethenyl}pyridin-2(1H)-one]
31 | 500 to 3000 nM | CC(C)Oc1ccc(C(C[C@H]2CCC(=O)N2)c2ccc(C3CC3)c(=O)[nH]2)cc1 (single isomer, unassigned) [Example 4-348]
32 | 10 to 500 nM | O=C1CC[C@H](/C=C(\c2ccc(S(=O)(=O)Cc3ccccc3)cc2)c2ccc(C3CC3)c(=O)[nH]2)N1 [Example 4-291, 6-{(E)-1-[4-(Benzylsulfonyl)phenyl]-2-[(2R)-5-oxopyrrolidin-2-yl]ethenyl}-3-cyclopropylpyridin-2(1H)-one]
33 | 10 to 500 nM | CN(C)c1ccc(/C(=C/[C@H]2CCC(=O)N2)c2ccc(C(C)(C)C)cc2)[nH]c1=O [Example 4-174, 6-{(E)-1-(4-tert-Butylphenyl)-2-[(2R)-5-oxopyrrolidin-2-yl]ethenyl}-3-(dimethylamino)pyridin-2(1H)-one]
